Results published in publication PMC10214526, “Semisynthetic LC3 Probes for Autophagy Pathways Reveal a Noncanonical LC3 Interacting Region Motif Crucial for the Enzymatic Activity of Human ATG3” (ACS Central Science, 2023).

Test system: Ube2K
Test: Reaction of Ubl probes with ubiquitin E2 Ube2K
Type: biochemical
Conditions: probe 15 μM, Ube2K 15 μM, 1 h, SDS-PAGE
Description: Figure 1 Modification of ATG3 with GABARAP ABPs depends on LIR^ATG3. a. Characterization of GABARAP activity-based probes, 1 and 2, obtained by hydrazide-acylation. Deconvoluted mass-spectrum (ESI) of GABARAP(ΔG116)–NHNH α-chloroacetyl 1. Expected mass 13707 Da. Deconvoluted mass-spectrum (ESI) of GABARAP(ΔG116)–NHNH methyl-fumarate 2. Expected mass 13743 Da. b. […] The reaction was allowed to proceed for 1 h and was analyzed by SDS-PAGE and Coomassie Blue staining. c. ColabFold-predicted structure of the protein-complex of ATG3 and GABARAP. Side-chain atoms are shown for the predicted LIR motif in ATG3 (90–112). d. Reaction of 2 (15 μM) with ATG3 variants C1, C0, and ΔLIR (15 μM). ATG3 C1 contains only active-site cysteine C264. ATG3 C0 contains no cysteines. ATG3 ΔLIR lacks amino acids 95–111. Reaction was allowed to proceed for 1 h and was analyzed by SDS-PAGE and Coomassie Blue staining. […]
Farnung et al. Supplementary Information and monitored using LC-MS analysis. […]
SUMO-GABARAP/LC3A-Mxe GyrA-His6 fusion after Ni-NTA purification was dialyzed against intein cleavage buffer (25 mM HEPES, 500 mM NaCl, 1 mM EDTA pH 7.2 at 4 °C). […] The solution was allowed to stand at room temperature and monitored using LC-MS analysis. […]
Ubl probes (15 μM) were mixed with E2s (15 μM) in PBS. […] If required, gel bands were quantified by gel densitometry using ImageLab (Bio- […]

GABARAP(ΔG116)–NHNH methyl-fumarate [compound 2]
Reaction with Ube2K: did not react
